From patent US20150174123A1, “OXABICYCLOHEPTANES AND OXABICYCLOHEPTENES FOR THE TREATMENT OF REPERFUSION INJURY” (priority 2012, published 2015)
Values joined by “and” are separate entries in the source; they are usually repeats but may differ in a detail not shown here. Identical values can stand only once. “Also recorded” adds a separate entry of the source. Like-named read-outs stand apart in the source and are kept apart here.

Key:
[1] = given orally to mice; cited from earlier work
[2] = Example 5: sepsis, vascular leakage and endothelial dysfunction from reperfusion injury; assay type: in vivo; settings: subject suffering from sepsis; no data given
[3] = biological target: PP2A (Homo sapiens, UniProt P67775); settings: cited from earlier work; for PP2A inhibition: statement in words
[4] = test system: Akt; test: Example 3: phosphorylation and activation of Akt in mammalian cells; assay type: cell-based; settings: mammalian cells incl. cardiac, brain, endothelial cells; no data given
[5] = test system: mammalian tissue; test: Example 4: reperfusion injury in mammalian tissue that has suffered an ischemia; assay type: in vivo; settings: mammalian tissue after ischemia; no data given
Description: (§1) LB100, LB102 or LB107 are tested in an animal model of cardiac ischemia-reperfusion injury.
The mammalian tissue includes, but is not limited to, cardiac tissue, brain tissue and endothelial tissue.

[6] = test system: heart; test: Example 5: tissue damage from reperfusion injury in the heart after myocardial infarction; assay type: in vivo; settings: following myocardial infarction; no data given
Description: as §1

[7] = Toxicokinetic studies in dogs; assay type: in vivo; settings: doses known to inhibit PP2A in tissue of rodents
[8] = test system: PP2A; settings: xenografts of human tumor cells in mice, given parenterally; cited from earlier work
[9] = Toxicokinetic studies in rats; assay type: in vivo; settings: doses known to inhibit PP2A in tissue of rodents
[10] = test system: PP2A; settings: in vitro in human cancer cells; cited from earlier work
[11] = test system: Akt; settings: Lu et al. 2009; US patent; cited from earlier work
[12] = test system: cancer cells; settings: mouse model systems; cited from earlier work
[13] = test system: distal end of a flap graft; test: Survival of tissue at the distal end of a skin flap graft (necrosis by planimetry and photographs); assay type: in vivo, in-bred rats
Description: An ALZET pump (model 1007D, reservoir volume 100 ul) was implanted subcutaneously under anesthesia subcutaneously four days before creating a skin flap again under anesthesia. The pump in control animals contained sodium chloride and the pump in treated animals contained 0.55 mg of LB-100. The pump delivers 0.5 ul/hour+/−10% so each animal received about 12 ul/day for 8 days, 4 days prior to raising the graft and for the first 4 days after creation of the graft. There were 10 animals in each group.
The animals were sacrificed on day 7 following creation of the flap, the amount of necrosis at the end of the flap was measured by planimetry. The area of necrosis at the end of the flap was divided by total surface area of the entire flap and expressed as a percentage.
The visual appearance of the flaps was also inspected. FIGS. 1a-j show control rats 1-10 on day 7 and FIGS. 2a-j show treatment rats 1-10 on day 7. The treatment rats had received LB-100.

[14] = test system: PP1; settings: Lu et al. 2009(a); cited from earlier work
[15] = test system: pig cells; settings: pig cells in vitro; cited from earlier work
[16] = test system: rabbit cells; settings: rabbit cells in vitro; cited from earlier work
[17] = test system: cardiac tissue (myocardium); settings: given before or after onset of oxygen deprivation, cited from earlier work
[18] = test system: pig myocardium; settings: cited from earlier work
[19] = young and aged rats; cited from earlier work
[20] = test system: mouse skeletal muscle endothelial cells; settings: cited from earlier work
[21] = test system: endothelial barrier; settings: septic insult; concentration that inhibits PP2A activity; cited from earlier work

Sequence of PP2A (Homo sapiens, UniProt P67775) (P67775 whole entry): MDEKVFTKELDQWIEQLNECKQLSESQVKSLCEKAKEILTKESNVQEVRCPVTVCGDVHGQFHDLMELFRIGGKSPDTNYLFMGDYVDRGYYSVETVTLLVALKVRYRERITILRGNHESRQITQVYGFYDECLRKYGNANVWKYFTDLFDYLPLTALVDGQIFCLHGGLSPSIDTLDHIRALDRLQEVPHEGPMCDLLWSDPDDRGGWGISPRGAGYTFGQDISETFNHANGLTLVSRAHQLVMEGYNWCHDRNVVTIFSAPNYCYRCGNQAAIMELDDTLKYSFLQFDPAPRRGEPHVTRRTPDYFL

| Compound | Endothelial dysfunction associated with reperfusion injury [2] | Vascular leakage associated with reperfusion injury [2] | PP2A inhibition [3] | Activation of Akt [4] | Dephosphorylation and inactivation of Akt by PP2A [4] | Phosphorylation of Akt [4] | Reperfusion injury [5] | Tissue damage associated with reperfusion injury in the heart [6] | PP2A inhibition [8] | PP2A inhibition [10] | Phosphorylation of Akt [11] | Growth of cancer cells [12] | Protection from injury [15] | Protection from injury [16] | further results |
| --- | --- | --- | --- | --- | --- | --- | --- | --- | --- | --- | --- | --- | --- | --- | --- |
| COC(=O)C1C(C(=O)N2CCN(C)CC2)[C@@H]2CC[C@H]1O2 (stereo in doubt) [LB-107, 3-(4-Methylpiperazine-1-carbonyl)-7-oxa-bicyclo[2,2,1]heptane-2-carboxylic acid methyl ester] | reduce endothelial dysfunction | reduce vascular leakage | effective inhibitors of PP2A | increase activation of Akt | reduce dephosphorylation and inactivation of Akt | increase phosphorylation of Akt | reduce reperfusion injury | reduce tissue damage; also recorded: prevent tissue damage | – | – | – | – | – | – | Oral activity [1]: active when given orally |
| CN1CCN(C(=O)C2C(C(=O)O)[C@H]3CC[C@@H]2O3)CC1 (some centres unmarked) [LB-100] | reduce endothelial dysfunction | reduce vascular leakage | effective inhibitors of PP2A | increase activation of Akt | reduce dephosphorylation and inactivation of Akt | increase phosphorylation of Akt | reduce reperfusion injury | reduce tissue damage; also recorded: prevent tissue damage | inhibitors of PP2A | inhibitors of PP2A | increased phosphorylation of Akt | inhibit the growth of cancer cells | – | – | Toxicity [7]: acceptable and reversible toxicity; Toxicity [9]: acceptable and reversible toxicity; Average area of necrosis (%) ([13]; average of 10 treatment rats, day 7, control average 41.0627243): 31.97%; Visual appearance of flaps (photographs) ([13]; day 7, distal ends of the flap, vs control rats): less extensive necrosis; Necrosis (area by planimetry) ([13]; individual treatment rats 1-10, day 7 after flap creation, pump with 0.55 mg LB-100): 64147 and 66886 and 77327 and 91515 and 112275 and 55473 and 63777 and 66144 and 37181 and 77089; Area of necrosis at the end of the flap divided by total surface area of the flap (%) ([13]; individual treatment rats 1-10, day 7 after flap creation, pump with 0.55 mg LB-100, about 12 ul/day for 8 days): 31.96% and 28.88% and 30.7% and 39.47% and 40.43% and 30.66% and 33.77% and 25.95% and 24.03% and 33.9%; Mean decrease in extent of necrosis in treated animals ([13]; treated vs control rats, planimetry, day 7): 22% |
| CC(C)(C)OC(=O)N1CCN(C(=O)C2C(C(=O)O)[C@H]3CC[C@@H]2O3)CC1 (some centres unmarked) [LB-102] | reduce endothelial dysfunction | reduce vascular leakage | effective inhibitors of PP2A | increase activation of Akt | reduce dephosphorylation and inactivation of Akt | increase phosphorylation of Akt | reduce reperfusion injury | reduce tissue damage; also recorded: prevent tissue damage | inhibitors of PP2A | inhibitors of PP2A | increased phosphorylation of Akt | inhibit the growth of cancer cells | – | – | IC50 ([3]; read-out: IC50 PP2A, Lu et al. 2009(a)): ~0.4 µM; IC50 [14]: ~8 µM |
| COC[C@@H]([C@H](O)[C@H](O)C(=O)NCC[C@H](C)c1nc(/C=C/C[C@@H]2O[C@]3(C[C@@H](O)[C@@H]2C)O[C@H]([C@H](C[C@H](O)[C@H](C)[C@H](O)[C@H](C)/C=C(C)/C(C)=C/C=C/C(C)=C\C#N)OC)[C@H](OP(=O)(O)O)C3(C)C)co1)N(C)C [calyculin A] | – | – | – | – | – | – | – | – | – | – | – | – | afforded protection from injury | afforded protection from injury | – |
| C[C@@](O)(/C=C/[C@H]1CC=CC(=O)O1)[C@@H](C[C@@H](O)\C=C/C=C\C=C\CO)OP(=O)(O)O [fostriecin] | – | – | – | – | – | – | – | – | – | – | – | – | afforded protection from injury | afforded protection from injury | Size of infarction of cardiac tissue / injury [17]: minimizes the size of infarction; Size of infarction of cardiac tissue / injury ([17]; listed as FOS): reduces injury |
| C=C1[C@@H](O)[C@@H]2O[C@]3(CC[C@H](/C=C/[C@@H](C)[C@@H]4CC(C)=C[C@@]5(O[C@H](C[C@@](C)(O)C(=O)O)CC[C@H]5O)O4)O3)CC[C@H]2O[C@@H]1[C@@H](O)C[C@H](C)[C@H]1O[C@@]2(CCCCO2)CC[C@H]1C [okadaic acid] | – | – | – | – | – | – | – | – | – | – | – | – | – | – | Activity of phosphatases, especially PP2A, in heart tissue ([18]; heart tissue infused with the inhibitor): decreased; Protection of myocardium against ischemia ([18]; pig, in vivo model): protected pig myocardium against ischemia; Cellular death following induced MI [19]: reduced cellular death; Endothelial barrier function [20]: preserved endothelial barrier function; Endothelial barrier disruption [21]: decreases endothelial barrier disruption |
